This is an account of results in patent publication US5753658A, “Quinolonecarboxylic acid derivatives” (Senju Pharmaceutical Co., Ltd., priority 1993, dated 1998).

One assay relates to S. aureus IFO 13276. Briefly: Antibacterial test (minimum inhibitory concentration), method designated by Japan Society of Chemotherapy. As to conditions: for MIC: Staphylococcus aureus, IFO13276, S. aureus IFO 13276, Gram's stain +, 10^6 cells/ml. The class given is cell-based, Staphylococcus aureus. Here is the method: (§1) Antibacterial test was carried out according to the method designated by Japan Society of Chemotherapy in Chemotherapy, 29 (1): 76 (1981), the content of which is herein incorporated by reference. Each of the compounds obtained in Examples 2, 4 and 7 is tested. As a control drug, 1-ethyl-6,8-difluoro-1,4-dihydro-4-oxo-7-(1-piperazinyl)-3-quinolinecarboxylic acid was used, which is represented by formula IV when R1 is hydrogen, R3 is ethyl, R4 and R5 are hydrogen, and Z is piperazinyl.
(§2) The results are shown in Table 1 in terms of minimum inhibitory concentration (MIC).

For a further assay, the system named is P. aeruginosa IFO 13275. The assay is described as above. Type of assay: cell-based. As to conditions: Pseudomonas aeruginosa, IFO13275; P. aeruginosa IFO 13275, Gram's stain -, 10^6 cells/ml. As for the experimental part: as §1, §2

Values after ≈ are worked out from the molar mass of the structure shown.

On to `CCn1cc(C(=O)O)c(=O)c2cc(F)c(N3CCN(S(=O)(=O)c4ccc(C)cc4)CC3)c(F)c21` [Example 4, 1-Ethyl-6,8-difluoro-1,4-dihydro-4-oxo-7-[4-(4-methylbenzenesulfonyl)-1-piperazinyl]-3-quinolinecarboxylic acid], for which the values for the MIC with S. aureus IFO 13276 and in the assay with P. aeruginosa IFO 13275 were 0.78 mg/L (≈ 1.59 µM) and below 0.025 mg/L, respectively.

`CCn1cc(C(=O)O)c(=O)c2cc(F)c(N3CCNCC3)c(F)c21` [Control drug, 1-ethyl-6,8-difluoro-1,4-dihydro-4-oxo-7-(1-piperazinyl)-3-quinolinecarboxylic acid, reference compound]: the MIC in the assay on S. aureus IFO 13276 is 0.39 mg/L (≈ 1.16 µM); in the assay on P. aeruginosa IFO 13275, below 0.025 mg/L.

As to `CCn1cc(C(=O)O)c(=O)c2cc(F)c(N3CCN(S(=O)(=O)c4ccc(N)cc4)CC3)c(F)c21` [Example 2, 1-Ethyl-6,8-difluoro-1,4-dihydro-4-oxo-7-[4-(4-aminobenzenesulfonyl)-1-piperazinyl]-3-quinolinecarboxylic acid], the MIC against S. aureus IFO 13276 is 0.2 mg/L (≈ 0.406 µM); with P. aeruginosa IFO 13275, below 0.025 mg/L. Also, in the assay on S. aureus IFO 13276 (against S. aureus, versus control drug), the “antibacterial activity compared with the control drug (in words)” value was “more potent antibacterial activity than the control drug”.

With `CCn1cc(C(=O)O)c(=O)c2cc(F)c(N3CCN(S(=O)(=O)c4ccc(F)cc4)CC3)c(F)c21` [Example 7, 1-Ethyl-6,8-difluoro-1,4-dihydro-4-oxo-7-[4-(4-fluorobenzenesulfonyl)-1-piperazinyl]-3-quinolinecarboxylic acid], the MIC against S. aureus IFO 13276 is 0.78 mg/L (≈ 1.57 µM); against P. aeruginosa IFO 13275, below 0.025 mg/L.
